Laboratory results taken from US9073895B2 (Boehringer Ingelheim International GmbH, priority 2010, dated 2015).

Assays:
[1] = tested on: biomarkers for myocardial infarction risk; conditions: clinical trial; cited from earlier work
[2] = tested on: synthesis of LTB4 in human whole blood; test: Human whole blood LTB4 production inhibition assay; format: cell-based; conditions: heparinized human whole blood, calcimycin 20 μM, plasma LTB4; read-out: HuWB IC50
How it was run: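 Heparinized human whole blood was preincubated with compound for 15 min at 37° C, then stimulated with calcimycin (20 μM final, in PBS pH 7.4) for a further 30 min at 37° C. Plasma LTB4 was quantified by antibody-based homogeneous time-resolved fluorescence.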

[3] = target: T1, recombinant human FLAP protein (Homo sapiens, UniProt P20292); test: FLAP binding assay (SPA, displacement of [125I]L-691,831); conditions: membranes of sf9 cells expressing human FLAP, [125I]L-691,831 probe; read-out: hFLAP binding IC50
T1 construct: made in house; host or cells: Sf9 insect cells (membrane fraction, 100,000 x g pellet)
T1 sequence (P20292 1-161): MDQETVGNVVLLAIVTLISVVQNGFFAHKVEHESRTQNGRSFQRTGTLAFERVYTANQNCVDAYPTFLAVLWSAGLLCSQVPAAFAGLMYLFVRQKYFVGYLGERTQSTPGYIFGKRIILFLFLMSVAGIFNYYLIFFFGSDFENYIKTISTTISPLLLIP
How it was run: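 Membranes from sf9 cells expressing human FLAP (5 μg/well) were bound to WGA SPA beads (200 μg/well). Nonspecific binding was defined with 10 μM unlabelled L-691,831.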

human glomerulonephritis = conditions: clinical trial; cited from earlier work
ApoExCD4dnT RII mice = conditions: infusion, treated for four weeks; cited from earlier work
[4] = tested on: apoE/LDL-R double knockout mice; conditions: oral dosing, high-fat diet from 2 months of age to 6 months; cited from earlier work

Row | Structure (SMILES) | IC50 [2] | IC50 [3] | further results
1 | O=C(O)[C@@H](c1ccc(OCc2ccc3ccccc3n2)cc1)C1CCCC1 [DG-031] |  |  | effect on biomarkers for myocardial infarction risk [1]: dose-dependent suppression of several biomarkers
2 | N#Cc1ccc(NC(=O)C2(c3ccc(-c4cnc(N)nc4)cc3)CCC2)nc1 [Example 232, 1-[4-(2-aminopyrimidin-5-yl)phenyl]-N-(5-cyanopyridin-2-yl)cyclobutanecarboxamide] | 152 nM | 7.45 nM | 
3 | CS(=O)(=O)c1ccc(NC(=O)C2(c3ccc(-c4cnc(N)nc4)cc3)CCC2)cc1 [Example 233, 1-[4-(2-aminopyrimidin-5-yl)phenyl]-N-[4-(methylsulfonyl)phenyl]cyclobutane-carboxamide] | 160 nM | 6.5 nM | 
4 | CN1CCc2nc(NC(=O)C3(c4ccc(-c5cnc(N)nc5)cc4)CCC3)sc2C1 [Example 234, 1-[4-(2-aminopyrimidin-5-yl)phenyl]-N-(5-methyl-4,5,6,7-tetrahydro[1,3]thiazolo[5,4-c]pyridin-2-yl)cyclobutanecarboxamide] | 858 nM | 32.5 nM | 
5 | Cc1nc(-c2ccc(NC(=O)C(C)(C)c3ccc(-c4cnc(N)nc4)cc3)nc2)cs1 [Example 235, 2-[4-(2-aminopyrimidin-5-yl)phenyl]-2-methyl-N-[5-(2-methyl-1,3-thiazol-4-yl)pyridin-2-yl]propanamide] | 627 nM | 5.4 nM | 
6 | N#Cc1cc(NC(=O)C2(c3ccc(-c4cnc(N)nc4)cc3)CCC2)ccn1 [Example 236, 1-[4-(2-aminopyrimidin-5-yl)phenyl]-N-(2-cyanopyridin-4-yl)cyclobutanecarboxamide] | 290 nM | 3.45 nM | 
7 | CCOC(=O)c1ccc(NC(=O)C2(c3ccc(-c4cnc(N)nc4)cc3)CCC2)nc1 [Example 237, ethyl 6-[({1-[4-(2-aminopyrimidin-5-yl)phenyl]cyclobutyl}carbonyl)amino]pyridine-3-carboxylate] | 43 nM | 1.9 nM | 
8 | Nc1ncc(-c2ccc(C3(C(=O)Nc4ccc(-c5ccncc5)cn4)CCC3)cc2)cn1 [Example 238] | 74.5 nM | 2.35 nM | 
9 | Nc1ncc(-c2ccc(C3(C(=O)Nc4ccc(-c5cccnc5)cn4)CCC3)cc2)cn1 [Example 239, 1-[4-(2-aminopyrimidin-5-yl)phenyl]-N-(3,3'-bipyridin-6-yl)cyclobutanecarboxamide] | 144 nM | 2.15 nM | 
10 | N#Cc1ccc(NC(=O)C2(c3ccc(-c4cnc(N)nc4)cc3)CCC2)cn1 [Example 241, 1-[4-(2-aminopyrimidin-5-yl)phenyl]-N-(6-cyanopyridin-3-yl)cyclobutanecarboxamide] | 406 nM | 5.6 nM | 
11 | Nc1ncc(-c2ccc(C3(C(=O)Nc4ccc(N5CCOCC5)c(Cl)c4)CCC3)cc2)cn1 [Example 245, 1-[4-(2-aminopyrimidin-5-yl)phenyl]-N-[3-chloro-4-(morpholin-4-yl)phenyl]cyclobutanecarboxamide] | 46 nM | 3.3 nM | 
12 | N#Cc1ccc(NC(=O)C2(c3ccc(-c4cnc(N)nc4)cc3)CCC2)cc1 [Example 250, 1-[4-(2-aminopyrimidin-5-yl)phenyl]-N-(4-cyanophenyl)cyclobutanecarboxamide] | 60.8 nM | 3.2 nM | 
13 | CN1CCN(c2cc(NC(=O)C3(c4ccc(-c5cnc(N)nc5)cc4)CCC3)ccn2)CC1 [Example 252, 1-[4-(2-aminopyrimidin-5-yl)phenyl]-N-[2-(4-methylpiperazin-1-yl)pyridin-4-yl]cyclobutanecarboxamide] | 228 nM | 7.4 nM | 
14 | Nc1ncc(-c2ccc(C3(C(=O)Nc4nc(-c5cccnc5)cs4)CCC3)cc2)cn1 [Example 253, 1-[4-(2-aminopyrimidin-5-yl)phenyl]-N-[4-(pyridin-3-yl)-1,3-thiazol-2-yl]cyclobutanecarboxamide] | 270 nM | 1.8 nM | 
15 | Nc1ncc(-c2ccc(C3(C(=O)Nc4nc(-c5ccncc5)cs4)CCC3)cc2)cn1 [Example 254, 1-[4-(2-aminopyrimidin-5-yl)phenyl]-N-[4-(pyridin-4-yl)-1,3-thiazol-2-yl]cyclobutanecarboxamide] | 111 nM | 1.6 nM | 
16 | Cn1cc(-c2ccc(NC(=O)C3(c4ccc(-c5cnc(N)nc5)cc4)CCC3)nc2)cn1 [Example 255, 1-[4-(2-aminopyrimidin-5-yl)phenyl]-N-[5-(1-methyl-1H-pyrazol-4-yl)pyridin-2-yl]cyclobutanecarboxamide] | 144 nM | 2.5 nM | 
17 | CC(C)(C)Sc1c(CC(C)(C)C(=O)O)n(Cc2ccc(Cl)cc2)c2ccc(OCc3ccc4ccccc4n3)cc12 [MK-591] |  |  | effect on proteinuria (human glomerulonephritis): reduce proteinuria
18 | CC(C)c1ccc2c(c1)c(SC(C)(C)C)c(CC(C)(C)C(=O)O)n2Cc1ccc(Cl)cc1 [MK-886] |  |  | decrease in plaque area in the aortic root (ApoExCD4dnT RII mice): ~40%; decrease in plaque coverage in the aorta [4]: 56%; decrease in plaque coverage in the aortic root [4]: 43%
